35 substances from patent US20050060764A1, “Mouse model for bone metabolism” (priority 2003, published 2005) can be followed below.

Strand notation (5' to 3'): a small letter for the sugar, then the base; units joined by * are phosphorothioate-linked, units joined directly phosphodiester-linked; [ ] holds rarer units or linkages, { } end groups; capitals alone tell only the bases. e = 2'-O-(2-methoxyethyl) (MOE); [5mC] = 5-methylcytosine; d = 2'-deoxy (DNA)

The series deals with rat RANKL mRNA. Nature of the series: Antisense inhibition of rat RANKL mRNA levels in UMR-106 cells, quantitative real-time PCR (Table 3). To be noted: averages from three experiments. The class given is cell-based. More on the design: concentration or dose not given beside the values. The method, then:
Cells were seeded onto 24-well plates (Falcon-353047) at a density of […] for use in antisense oligonucleotide transfection.
Cells are treated and data are obtained in triplicate. […] Cells were harvested 16-24 hours after oligonucleotide treatment.
PCR reagents were obtained from Invitrogen Corporation, (Carlsbad, Calif.).
Probes and primers to rat RANKL were designed to hybridize to a rat RANKL sequence, using published sequence information (GenBank accession number NM_057149.1, incorporated herein as SEQ ID NO:18). For rat RANKL the PCR primers were: • forward primer: […] (SEQ ID NO:19) • reverse primer: […] (SEQ ID NO: 20) and the • PCR probe was: FAM-[…]-TAMRA (SEQ ID NO: 21) where FAM is the fluorescent reporter dye and TAMRA is the quencher dye. For rat GAPDH the PCR primers were: • forward primer: […](SEQ ID NO:22) • reverse primer: […](SEQ ID NO:23) and the • PCR probe was: 5′ JOE-[…]-TAMRA 3′ (SEQ ID NO: 24) where JOE is the fluorescent reporter dye and TAMRA is the quencher dye.
In accordance with the present invention, a second series of antisense compounds was designed to target different regions of the rat RANKL RNA, using published sequences (GenBank accession number NM_057149.1, incorporated herein as SEQ ID NO: 18, and GenBank accession number AF425669.1, incorporated herein as SEQ ID NO: 200). […] All cytidine residues are 5-methylcytidines. […] If present, “N.D.” indicates “no data”.
Take “286652 (e[5mC]*eT*e[5mC]*eT*eG*d[5mC]*dA*dA*dT*dG*dT*dA*dA*d[5mC]*dG*eG*eT*eA*e[5mC]*e[5mC]; antisense) [compound 286652]”: the “% INHIB (inhibition of rat RANKL mRNA levels)” value (shortened to “% INHIB”) is 53%.

Consider “286604 (antisense eT*e[5mC]*e[5mC]*eA*eG*dA*dG*dT*d[5mC]*dG*dA*dG*dT*d[5mC]*d[5mC]*eT*eG*e[5mC]*eA*eA) [compound 286604]”, for which the “% INHIB” value turned out to be 68%.

For “286626 (antisense eT*eG*eT*eT*eG*dG*d[5mC]*dG*dT*dA*d[5mC]*dA*dG*dG*dT*eA*eA*eT*eA*eG) [compound 286626]”, the “% INHIB” value is 41%.

For “286653 (eA*eA*eA*e[5mC]*e[5mC]*dA*dT*d[5mC]*dA*dT*dT*dT*d[5mC]*dT*d[5mC]*eT*eG*e[5mC]*eA*eA; antisense) [compound 286653]”, the “% INHIB” value was 58%.

“286587 (antisense eG*e[5mC]*eG*e[5mC]*eA*dG*dG*dT*dA*d[5mC]*dT*dT*dG*d[5mC]*d[5mC]*eG*eT*eA*eG*eT) [compound 286587]”: the “% INHIB” value is 50%.

Take “286645 (antisense e[5mC]*eT*eT*eA*eG*dT*dA*dG*dT*d[5mC]*dT*dT*dA*d[5mC]*dA*e[5mC]*eA*eT*eG*eT) [compound 286645]”: the “% INHIB” value came to 51%.

As for “tccagagtcgagtcctgcaa (eT*e[5mC]*e[5mC]*eA*eG*dA*dG*dT*d[5mC]*dG*dA*dG*dT*d[5mC]*d[5mC]*eT*eG*e[5mC]*eA*eA; antisense) [ISIS 286604, 2′-MOE gapmer targeted to rat RANKL]”, the “% INHIB” value is recorded as “at least 40%”.

Regarding “acttatttgcaggttccagc (eA*e[5mC]*eT*eT*eA*dT*dT*dT*dG*d[5mC]*dA*dG*dG*dT*dT*e[5mC]*e[5mC]*eA*eG*e[5mC]; antisense) [ISIS 286654, 2′-MOE gapmer targeted to rat RANKL]”, the “% INHIB” value is “at least 40%”.

Regarding “286646 (antisense eT*eT*eT*eT*eG*dT*dA*d[5mC]*dA*dA*d[5mC]*dG*dT*dG*dG*eG*e[5mC]*e[5mC]*eA*e[5mC]) [compound 286646]”, the “% INHIB” value came out at 53%.

With “286619 (antisense eG*eG*eT*eT*eA*dA*d[5mC]*d[5mC]*d[5mC]*dT*dT*dA*dG*dT*dT*eT*eT*e[5mC]*e[5mC]*eG) [compound 286619]”, the “% INHIB” value was 61%.

Consider “tgttggcgtacaggtaatag (eT*eG*eT*eT*eG*dG*d[5mC]*dG*dT*dA*d[5mC]*dA*dG*dG*dT*eA*eA*eT*eA*eG; antisense) [ISIS 286626, 2′-MOE gapmer targeted to rat RANKL]”, for which the “% INHIB” value is given as “at least 40%”.

As for “gcaaatgttggcgtacaggt (eG*e[5mC]*eA*eA*eA*dT*dG*dT*dT*dG*dG*d[5mC]*dG*dT*dA*e[5mC]*eA*eG*eG*eT; antisense) [ISIS 286627, 2′-MOE gapmer targeted to rat RANKL]”, the “% INHIB” value is on record as “at least 40%”.

Turning to “286621 (antisense eA*eA*eG*e[5mC]*e[5mC]*dA*dT*d[5mC]*dT*dT*dG*dG*dT*dT*dA*eA*e[5mC]*e[5mC]*e[5mC]*eT) [compound 286621]”, the “% INHIB” value came to 33%.

For the substance “tagagatcttggcccagcct (eT*eA*eG*eA*eG*dA*dT*d[5mC]*dT*dT*dG*dG*d[5mC]*d[5mC]*d[5mC]*eA*eG*e[5mC]*e[5mC]*eT; antisense) [ISIS 286615, 2′-MOE gapmer targeted to rat RANKL]”, the “% INHIB” value is “at least 40%”.

With “286603 (antisense eA*eG*eT*e[5mC]*eG*dA*dG*dT*d[5mC]*d[5mC]*dT*dG*d[5mC]*dA*dA*eA*e[5mC]*e[5mC]*eT*eG) [compound 286603]”, the “% INHIB” value is on record as 59%.

“286657 (e[5mC]*e[5mC]*eA*eG*eT*dT*dA*dA*dA*dT*dA*d[5mC]*dA*dT*d[5mC]*eT*eT*eG*eA*e[5mC]; antisense) [compound 286657]”: the “% INHIB” value is 10%.

As for “gacctgtacagggtcgagag (eG*eA*e[5mC]*e[5mC]*eT*dG*dT*dA*d[5mC]*dA*dG*dG*dG*dT*d[5mC]*eG*eA*eG*eA*eG; antisense) [ISIS 286647, 2′-MOE gapmer targeted to rat RANKL]”, the “% INHIB” value is “at least 40%”.

For “286596 (antisense eT*e[5mC]*eT*eG*eT*dT*dA*dG*dG*dA*dT*d[5mC]*d[5mC]*dA*dT*e[5mC]*eT*eG*e[5mC]*eG) [compound 286596]”, the “% INHIB” value was determined as 58%.

Regarding “ctttgaaagccccaaagtac (e[5mC]*eT*eT*eT*eG*dA*dA*dA*dG*d[5mC]*d[5mC]*d[5mC]*d[5mC]*dA*dA*eA*eG*eT*eA*e[5mC]; antisense) [ISIS 286641, 2′-MOE gapmer targeted to rat RANKL]”, the “% INHIB” value is “at least 40%”.

Take “aaagccccaaagtacgtcgc (eA*eA*eA*eG*e[5mC]*d[5mC]*d[5mC]*d[5mC]*dA*dA*dA*dG*dT*dA*d[5mC]*eG*eT*e[5mC]*eG*e[5mC]; antisense) [ISIS 286640, 2′-MOE gapmer targeted to rat RANKL]”: the “% INHIB” value was “at least 40%”.

For “286612 (antisense eT*eG*eG*eT*eA*d[5mC]*d[5mC]*dA*dA*dG*dA*dG*dG*dA*d[5mC]*eA*eG*eA*e[5mC]*eT) [compound 286612]”, the “% INHIB” value stood at 5%.

With “180806 (antisense eG*eG*e[5mC]*eA*eG*d[5mC]*dA*dT*dT*dG*dA*dT*dG*dG*dT*eG*eA*eG*eG*eT) [compound 180806]”, the “% INHIB” value was found to be 9%.

On to “286649 (antisense eT*eA*eG*eA*e[5mC]*d[5mC]*d[5mC]*dA*dG*dA*dG*dA*d[5mC]*dT*dA*eT*eG*eT*eA*eT) [compound 286649]”, for which the “% INHIB” value turned out to be 25%.

With “ggttaacccttagttttccg (eG*eG*eT*eT*eA*dA*d[5mC]*d[5mC]*d[5mC]*dT*dT*dA*dG*dT*dT*eT*eT*e[5mC]*e[5mC]*eG; antisense) [ISIS 286619, 2′-MOE gapmer targeted to rat RANKL]”, the “% INHIB” value is reported as “at least 40%”.

With “taggatccatctgcgctcga (eT*eA*eG*eG*eA*dT*d[5mC]*d[5mC]*dA*dT*d[5mC]*dT*dG*d[5mC]*dG*e[5mC]*eT*e[5mC]*eG*eA; antisense) [ISIS 286595, 2′-MOE gapmer targeted to rat RANKL]”, the “% INHIB” value is “at least 40%”.

On to “cttgggattttgatgctggt (e[5mC]*eT*eT*eG*eG*dG*dA*dT*dT*dT*dT*dG*dA*dT*dG*e[5mC]*eT*eG*eG*eT; antisense) [ISIS 286632, 2′-MOE gapmer targeted to rat RANKL]”, for which the “% INHIB” value is on record as “at least 40%”.

For “286640 (antisense eA*eA*eA*eG*e[5mC]*d[5mC]*d[5mC]*d[5mC]*dA*dA*dA*dG*dT*dA*d[5mC]*eG*eT*e[5mC]*eG*e[5mC]) [compound 286640]”, the “% INHIB” value is 56%.

On to “286592 (antisense e[5mC]*eT*e[5mC]*eG*eA*dA*dA*dG*dT*dA*d[5mC]*dA*dG*dG*dA*eA*e[5mC]*eA*eG*eA) [compound 286592]”, for which the “% INHIB” value is 16%.

In the case of “286627 (antisense eG*e[5mC]*eA*eA*eA*dT*dG*dT*dT*dG*dG*d[5mC]*dG*dT*dA*e[5mC]*eA*eG*eG*eT) [compound 286627]”, the “% INHIB” value came to 53%.

As to “286594 (antisense eT*e[5mC]*e[5mC]*eA*eT*d[5mC]*dT*dG*d[5mC]*dG*d[5mC]*dT*d[5mC]*dG*dA*eA*eA*eG*eT*eA) [compound 286594]”, the “% INHIB” value was 35%.

On to “286623 (antisense eT*eA*eA*eT*eA*dG*dA*dA*dG*d[5mC]*d[5mC]*dA*dT*d[5mC]*dT*eT*eG*eG*eT*eT) [compound 286623]”, for which the “% INHIB” value turned out to be 16%.

Turning to “agtcgagtcctgcaaacctg (eA*eG*eT*e[5mC]*eG*dA*dG*dT*d[5mC]*d[5mC]*dT*dG*d[5mC]*dA*dA*eA*e[5mC]*e[5mC]*eT*eG; antisense) [ISIS 286603, 2′-MOE gapmer targeted to rat RANKL]”, the “% INHIB” value is “at least 40%”.

For “286597 (antisense eG*eA*eT*eA*eT*dT*d[5mC]*dT*dG*dT*dT*dA*dG*dG*dA*eT*e[5mC]*e[5mC]*eA*eT) [compound 286597]”, the “% INHIB” value came out at 57%.

Consider “ccattgtgtgatcaccatga (e[5mC]*e[5mC]*eA*eT*eT*dG*dT*dG*dT*dG*dA*dT*d[5mC]*dA*d[5mC]*e[5mC]*eA*eT*eG*eA; antisense) [ISIS 286648, 2′-MOE gapmer targeted to rat RANKL]”, for which the “% INHIB” value is “at least 40%”.

“agaggacagactgactttat (eA*eG*eA*eG*eG*dA*d[5mC]*dA*dG*dA*d[5mC]*dT*dG*dA*d[5mC]*eT*eT*eT*eA*eT; antisense) [ISIS 286611, 2′-MOE gapmer targeted to rat RANKL]”: the “% INHIB” value was “at least 40%”.
